The values that follow are results of earlier work, collected in patent US11980686B1, “Agomelatine oral transmucosal film” (Xiamen LP Pharmaceutical Co., Ltd., priority 2023, dated 2024).

The conditions of this data set: oral tablet.

For the molecule `COc1ccc2cccc(CCNC(C)=O)c2c1` [agomelatine, Agomelatine], the “Inter-individual variation (AUC)” value is recorded as 104% and the “Intra-subject variation (AUC)” value is given as 157%.
